Measurements: publication PMC8583776, “PD-L1 Inhibitors: Different Classes, Activities, and Mechanisms of Action” (International Journal of Molecular Sciences, 2021)
Read-outs that look alike come from different tables or passages of the source.

Tests used:
mPD-L1 = test system: mPD-L1; parameters: method as in PMID 33437940; details: cited from earlier work; for Target Specificity mPD-L1: mouse PD-L1
[1] = molecular target: T1, PD-1/PD-L1 immune checkpoint (Homo sapiens, UniProt Q9NZQ7); details: cited from earlier work; for ICB Assay %RLUmax: % of activation by therapeutic anti-PD-L1 antibody; for EC50: read-out: ICB Assay EC50
T1 construct: host or cells: CHO-K1 (CHO/TCRAct/PD-L1) cells and Jurkat Effector Cells
T1 sequence (Q9NZQ7 19-290): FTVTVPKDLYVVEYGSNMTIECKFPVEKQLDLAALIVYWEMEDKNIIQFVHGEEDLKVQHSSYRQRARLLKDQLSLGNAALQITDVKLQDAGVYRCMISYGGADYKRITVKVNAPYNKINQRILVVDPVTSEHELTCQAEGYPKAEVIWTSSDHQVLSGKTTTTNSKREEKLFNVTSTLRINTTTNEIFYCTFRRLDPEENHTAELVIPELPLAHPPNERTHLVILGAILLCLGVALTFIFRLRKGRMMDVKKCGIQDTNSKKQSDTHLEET

hPD-1/hPD-L1 complex [2] = molecular target: T2, hPD-1/hPD-L1 complex (Homo sapiens, UniProt Q9NZQ7); details: cited from earlier work
T2 construct: Tag1 or Tag2 (kit tag, identity not disclosed); purchased CisBio (Codolet, France)
T2 sequence (Q9NZQ7 19-238 limits assumed, one chain of several): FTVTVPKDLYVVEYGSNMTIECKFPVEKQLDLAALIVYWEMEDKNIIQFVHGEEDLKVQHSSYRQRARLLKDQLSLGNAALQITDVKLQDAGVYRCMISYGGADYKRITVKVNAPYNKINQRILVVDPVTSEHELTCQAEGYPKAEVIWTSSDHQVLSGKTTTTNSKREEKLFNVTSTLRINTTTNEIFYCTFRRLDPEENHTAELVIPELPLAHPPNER

PD-1/PD-L1 complex = details: various assays; cited from earlier work
human PBMCs = test system: human PBMCs; parameters: method as in PMID 31374878; details: cited from earlier work
human PD-L1 [3] = details: cited from earlier work
mouse T cells = test system: mouse T cells; parameters: method as in PMID 31374878; details: cited from earlier work
PD-1 = details: cited from earlier work
PD-L1 = test system: PD-L1; parameters: method as in PMID 33619272; details: cited from earlier work
MC38-hPD-L1 tumor model = test system: MC38-hPD-L1 tumor model; parameters: method as in PMID 33619272; details: humanized double knock-in mice for PD-1 and PD-L1; cited from earlier work
human PD-L1 [4] = test system: human PD-L1; parameters: method as in PMID 29069777, PMID 28613862, PMID 27083005, PMID 33619272; details: in vitro PD-L1 dimerization in the presence of the molecule; cited from earlier work
hPD-L1 = test system: hPD-L1; parameters: method as in PMID 33437940; details: cited from earlier work
hPD-1/hPD-L1 complex [5] = molecular target: T2, hPD-1/hPD-L1 complex; assay: HTRF assay of PD-1/PD-L1 complex formation blockade; type: binding; details: Figure A2, 5 nM hPD-L1, 50 nM hPD-1
Excerpt: We performed a comparison of the in vitro targeting of the PD-1/PD-L1 immune checkpoint with molecules selected from various classes, including small molecules, macrocyclic peptides, and monoclonal antibodies. For this, two standardized and popular techniques used in the available literature were applied: the protein-based Homogeneous Time-Resolved Fluorescence (HTRF) method and the cell-based Immune Checkpoint Blockade (ICB) assay. Using these methods, three parameters describing the in vitro potency of the tested compounds were determined: (i) IC50 values of the blockade of PD-1/PD-L1 complex formation (from HTRF); (ii) EC50 values of the reactivation of the effector T cells blocked with PD-L1 (from ICB); and (iii) maximal activation levels of the effector T cells, calculated as the % of the activation in the presence of therapeutic anti-PD-L1 antibody atezolizumab or durvalumab. […]
The certified CisBio (Codolet, France) HTRF assay was used to determine the IC50 values of the compounds according to the manufacturer’s guidelines. […] IC50 of tested compounds was determined for two individual dilution series unless stated otherwise. After mixing, the plate was left for 2 h incubation at room temperature and later measured using Tecan Spark 20M multimode microplate reader (Tecan, Männedorf, Switzerland). […]

[6] = authors' laboratory, read-out: HTRF IC50 Ours
[7] = other laboratories, read-out: HTRF IC50 Other

| Compound | Target Specificity mPD-L1 (mPD-L1) | ICB Assay %RLUmax [1] | EC50 [1] | IC50 (hPD-1/hPD-L1 complex [2]; [7]) | also measured |
| --- | --- | --- | --- | --- | --- |
| CC(=O)NCCNCc1cc(C)c(OCc2cccc(-c3cccc(COc4cc(OCc5cccc(C#N)c5)c(CNCCNC(C)=O)cc4C)c3C)c2C)cc1OCc1cccc(C#N)c1 [2b] | No | 93% | 763 nM | – | – |
| O=C(O)[C@@H]1CCCCN1Cc1ccc(OCc2cccc(-c3ccccc3)c2Br)c(Br)c1 [2k] | No | 87% | 6630 nM | – | IC50 (hPD-1/hPD-L1 complex [2]; [6]): 14.9 nM |
| COc1cc(-c2cccc(-c3ccc4c(c3)OCCO4)c2Cl)ccc1CNC(CO)(CO)CO [8j] | No | 87% | 1030 nM | – | IC50 (hPD-1/hPD-L1 complex [2]; [6]): < 1 nM |
| CC(=O)NCCNCc1cc(C)c(OCc2cccc(-c3cccc4c3CCN4CCCN3CCC(O)CC3)c2C)cc1OCc1cccc(C#N)c1 [A20] | – | 55% | 430 nM | 17 nM | – |
| COc1nc(OCc2cccc(-c3ccccc3)c2C)ccc1CNCCNC(C)=O [BMS-202] | No | – | – | – | – |
| Cc1c(COc2cc(OCc3cccc(C#N)c3)c(CN3C[C@H](O)C[C@@H]3C(=O)O)cc2Cl)cccc1-c1ccc2c(c1)OCCO2 [BMS-1166] | No | – | – | – | – |
| COc1cc(-c2cccc(-c3cccc(-c4ccc(CN5CC(C(=O)O)C5)c(OC)c4)c3C)c2C)ccc1CN1CC(C(=O)O)C1 [C13] | – | 100% | 104 nM | 4.23 nM | – |
| C[C@@H](O)[C@H](NC(=O)N[C@@H](CC(N)=O)c1nc([C@@H](N)CO)no1)C(=O)O [CA-170] | – | – | – | – | dissociation of the PD-1/PD-L1 complex (PD-1/PD-L1 complex): unable to dissociate the PD-1/PD-L1 complex; activation of human PBMCs (human PBMCs): increase the activation of human PBMCs; direct binding to human PD-L1 (human PD-L1 [3]): direct binder of neither human PD-L1 nor PD-1; activation of mouse T cells (mouse T cells): increase the activation of human PBMCs and mouse T cells; activity in PD-1/PD-L1-focused cell-based ICB assay [1]: inactive; direct binding to PD-1 (PD-1): direct binder of neither human PD-L1 nor PD-1 |
| O=C(O)[C@H](CO)NCc1ccc2c(Nc3cccc(-c4ccc5c(c4)OCCO5)c3Cl)nsc2c1 [CH20] | – | 93% | 5600 nM | 8.5 nM | – |
| O=C(O)[C@H](CO)NCc1cc(Br)c(OCc2cccc(-c3ccccc3)c2Br)cc1OCc1ccc2nonc2c1 [L7] | – | 75% | 375 nM | – | – |
| Cc1c(NC(=O)c2ccc(CNCCO)cn2)cccc1-c1cccc(NC(=O)c2ccc(CNCCO)cn2)c1C [comp. A] | No | 86.3% | 18.9 nM | 0.4 nM | dimerization of PD-L1 in a cellular context (PD-L1): dimerization of PD-L1; in vivo bioactivity (MC38-hPD-L1 tumor model): succeeded in showing the bioactivity |
| atezolizumab: therapeutic anti-PD-L1 antibody | – | 100% | 0.14 nM | – | PD-L1 Dimerization (human PD-L1 [4]): No; blockade of mouse PD-L1 (mPD-L1): blocks both human and mouse PD-L1; blockade of human PD-L1 (hPD-L1): blocks both human and mouse PD-L1 |
| durvalumab: therapeutic anti-PD-L1 antibody | No | 100% | 0.23 nM | – | PD-L1 Dimerization (human PD-L1 [4]): No; blockade of mouse PD-L1 (mPD-L1): not the mouse PD-L1; blockade of human PD-L1 (hPD-L1): blocks the human PD-L1; IC50 (hPD-1/hPD-L1 complex [5]; read-out: HTRF IC50): 0.0966 nM; IC50 (hPD-1/hPD-L1 complex [5]; [6]): 0.1 nM |
| nivolumab: therapeutic antibody | – | 100% | 1.27 nM | 0.2 nM | – |
| p57: macrocyclic peptide PD-L1 inhibitor disclosed by Bristol Myers Squibb | – | – | 566 nM | 9 nM | – |
| p71: macrocyclic peptide PD-L1 inhibitor disclosed by Bristol Myers Squibb | – | – | 293 nM | 7 nM | – |
| p101: macrocyclic peptide PD-L1 inhibitor disclosed by Bristol Myers Squibb (FFIVIRDRVFRCG) | – | – | 7500 nM | 120 nM | IC50 (hPD-1/hPD-L1 complex [2]; [6]): 27.8 nM |
